Earlier results, collected in patent publication US9107877B2, “Method of treating onychomycosis” (Polichem SA, priority 2013, dated 2015).

Assays:
onychomycosis [1] = details: 48 weeks of daily topical treatment, 12-week follow up
onychomycosis [2] = details: oral, 250 mg tablet a day for 12 weeks

SMILES | Complete cure (onychomycosis [1]) | Responders (onychomycosis [1]) [%] | Complete cure, % of patients (onychomycosis [2]) [%]
Cc1cc(C2CCCCC2)n(O)c(=O)c1 [ciclopirox] | about 13% | ~30 | 
CN(C/C=C/C#CC(C)(C)C)Cc1cccc2ccccc12 [terbinafine] |  |  | 38
